Experimental data: patent US20050026223A1, “Method and compositions for increasing bone mass” (The Board of Trustees of the University of Arkansas, priority 1999, published 2005)

Legend:
[1] = Vertebral compression strength of fifth lumbar vertebrae (L5); assay type: in vivo, mice; settings: 2000 ng/g body weight for 28 days, mean
Description: In a representative experiment of this sort, seven 4-5 month old female mice per group are screened twice for BMD in a four week period immediately prior to the initiation of the experiment to establish that peak adult bone mass has been attained. A subset of mice are then ovariectomized. Intact and ovariectomized mice are treated with vehicle, or 20, 200 or 2000 ng/g body weight estratriene-3-ol or another ANGEL compound. […] Ultimate load bearing properties of the fifth lumbar murine vertebrae (L5) is determined. This is done using a servohydraulic axial-torsional material testing machine (Model MTS 810 Bionx; MTS Systems Corp., Eden Prairie, Minn.) and a Lebow load cell (Eaton Products, Troy, Mich.). Data are recorded and analyzed using the LabVIEW software package and an acquisition/signal conditioning board (Model NB-MIO-16, National Instruments Corporation, Austin, Tex.). The L5 specimens that is used for ultimate load bearing is cleaned of surrounding soft tissue and the length and diameter recorded with a digital caliper at a resolution of 0.01 mm (Mitutoyo Model #500-196, Ace Tools, Ft. Smith, Ark.). […] Vertebrae are individually compressed between parallel loading platens along the cephalocaudad axis until failure and the ultimate load (in Newtons) and displacement (in mm) are recorded. […]

[2] = tested on: extracellular signal regulated kinases (ERKs) 1 and 2; experiment: Western blot of phosphorylated ERK1/2 in MLO-Y4 osteocytic cells; assay type: cell-based, murine
Description: (§1) MLO-Y4 osteocytic cells were incubated for 25 minutes in serum-free medium. […] Cell lysates were prepared and proteins were separated by electrophoresis in polyacrylamide gels and transferred to PVDF membranes. Western blotting was performed using a specific antibody recognizing phosphorylated ERKs 1 and 2, followed by reblotting with an antibody recognizing total ERKs. Blots were developed by enhanced chemiluminescence.
MLO-Y4 cells were incubated for 25 minutes in serum-free medium in the presence or absence of 50 μM PD98059. […] Cell lysates were prepared and proteins were separated by electrophoresis in polyacrylamide gels and transferred to PVDF membranes. Western blotting was performed using a specific antibody recognizing phosphorylated ERKs 1 and 2, followed by reblotting with an antibody recognizing total ERKs. Blots were developed by enhanced chemiluminescence.
as §1, with “In this experiment, MLO-Y4” for “MLO-Y4”, “extracellular signal regulated kinases” for “ERKs”, “extracellular signal regulated kinases.” for “ERKs.”, “chemiluminescence. […] This effect is too rapid to be accounted for by the classical mechanism of estrogen action.” for “chemiluminescence.”
In this experiment, MLO-Y4 osteocytic cells were incubated for 25 minutes in serum-free medium in the presence or absence of 50 μM PD98059. […] Cell lysates were prepared and proteins were separated by electrophoresis in polyacrylamide gels and transferred to PVDF membranes. Western blotting was performed using a specific antibody recognizing phosphorylated extracellular signal regulated kinases 1 and 2, followed by reblotting with an antibody recognizing total extracellular signal regulated kinases. Blots were developed by enhanced chemiluminescence.

[3] = tested on: HeLa cells transfected with the estrogen receptor α (mERα); experiment: Etoposide-induced apoptosis of HeLa cells stably transfected with mERα; assay type: cell-based, human; settings: compound 10^−8 M 1 h, etoposide 5×10^−5 M 6 hour
Source text: CMV promoter alone and CMV promoter-driven cDNA for mERα or mErβ were stably transfected into HeLa cells. […] Cells were trypsinized, pelleted and trypan blue positive cells enumerated.
(§2) In this experiment, instead of calvaria cells, human HeLa cells which contain undetectable, if any, estrogen receptor were used. HeLa cells were stably transfected with either a CMV promoter-driven cDNA for the murine estrogen receptor-alpha (mERα) or a CMV promoter-driven cDNA for the murine estrogen receptor-beta (mERβ). […] Cells were trypsinized, pelleted and trypan blue positive cells were enumerated.

human ERα = target: T1, human ERα (Homo sapiens, UniProt P03372); experiment: Estrogen response element luciferase reporter in 293 cells overexpressing hERα; assay type: cell-based; settings: 3 copies ERE-luciferase
T1 construct: expressed in transfected cells; host or cells: 293 (human embryonic kidney) cells
T1 sequence (P03372 1-595): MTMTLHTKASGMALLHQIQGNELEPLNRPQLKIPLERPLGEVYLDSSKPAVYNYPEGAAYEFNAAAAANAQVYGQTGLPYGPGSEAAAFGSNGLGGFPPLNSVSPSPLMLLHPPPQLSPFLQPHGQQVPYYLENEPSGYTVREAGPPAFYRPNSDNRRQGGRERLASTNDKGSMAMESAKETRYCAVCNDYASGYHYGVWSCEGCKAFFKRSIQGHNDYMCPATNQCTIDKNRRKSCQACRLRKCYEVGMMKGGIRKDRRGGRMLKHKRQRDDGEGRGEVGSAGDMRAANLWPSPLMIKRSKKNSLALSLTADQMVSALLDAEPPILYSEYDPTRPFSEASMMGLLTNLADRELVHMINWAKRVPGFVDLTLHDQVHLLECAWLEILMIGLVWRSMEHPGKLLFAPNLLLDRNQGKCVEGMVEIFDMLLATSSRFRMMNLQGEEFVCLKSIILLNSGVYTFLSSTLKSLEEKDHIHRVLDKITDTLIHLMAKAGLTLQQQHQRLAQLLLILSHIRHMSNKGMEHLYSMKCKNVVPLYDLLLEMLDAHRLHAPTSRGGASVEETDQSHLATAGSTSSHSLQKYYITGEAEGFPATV
Source text: The human ERα was overexpressed in 293 cells lacking ERα along with a reporter construct containing 3 copies of an estrogen response element driving the luciferase gene. Light units were counted and normalized to coexpressed b-galactosidase activity to control for differences in transfection efficiency. Results represent percent stimulation compared to ERα transfected cells, but not treated with the two agents. Each bar represents mean of duplicate experiments +/−SEM. *p<0.001 vs. cells not exposed to the sterols.
In this experiment, hERα was overexpressed in 293 cells (which lack constitutive ERα) along with a reporter construct containing 3 copies of an estrogen response element driving the luciferase gene. Light units were counted and normalized to coexpressed β-galactosidase activity to control for differences in transfection efficiency.

wild type HeLa cells = experiment: Etoposide-induced apoptosis of wild type HeLa cells; assay type: cell-based, human; settings: compound 10^−8 M 1 h, etoposide 5×10^−5 M 6 hour
Source text: CMV promoter alone and CMV promoter-driven cDNA for mERα or mErβ were stably transfected into HeLa cells. […] Cells were trypsinized, pelleted and trypan blue positive cells enumerated. Each bar represents mean of duplicate experiments ±SEM. *P<0.02 versus etoposide alone.
as §2

Question: What does the source list for `C[C@@]12CCC[C@H]1[C@@H]1CCc3cc(O)ccc3[C@H]1CC2` [estratriene-3-ol]?
Answer: Vertebral Compression ([1]; Ovx mice, p < 0.00001): 85.57 ± 10.17 Newtons; Vertebral Compression ([1]; intact mice, p < 0.006): 96.26 ± 15.92 Newtons; Activation of ERKs (phosphorylated fraction of ERK1/2) ([2]; 10^−8 M, 5, 15 or 30 minutes): activated; Ability to activate ERKs in the presence of PD98059 ([2]; compound 10^−8 M, 5 minutes, 50 μM PD98059): abrogated; Effect on etoposide-induced apoptosis [3]: potently inhibited; Transactivation of an estrogen response element through the estrogen receptor α (human ERα): did not transactivate; Effect on etoposide-induced apoptosis (wild type HeLa cells): none of the three compounds had any effect
